The text below walks through data of patent EP1585727B1, “INDOLES USEFUL IN THE TREATMENT OF ANDROGEN-RECEPTOR RELATED DISEASES” (priority 2002, dated 2004).

As a reminder, the pEC50 is the negative decadic logarithm of the EC50, by convention in mol/L.

Each structure is given as a SMILES string. pEC50: −log10 of the molar value. Structures can show the parent of a compound that is named as a salt. A value given as a limit tells only on which side of the number the result lay.

One experiment deals with T1, human androgen receptor (Homo sapiens, UniProt P10275).
T1 construct: expressed in transfected cells; host or cells: Chinese hamster ovary (CHO) cells, cell line CHO-AR-pMMTV-LUC 1G12-A5-CA
T1 sequence (P10275 1-920): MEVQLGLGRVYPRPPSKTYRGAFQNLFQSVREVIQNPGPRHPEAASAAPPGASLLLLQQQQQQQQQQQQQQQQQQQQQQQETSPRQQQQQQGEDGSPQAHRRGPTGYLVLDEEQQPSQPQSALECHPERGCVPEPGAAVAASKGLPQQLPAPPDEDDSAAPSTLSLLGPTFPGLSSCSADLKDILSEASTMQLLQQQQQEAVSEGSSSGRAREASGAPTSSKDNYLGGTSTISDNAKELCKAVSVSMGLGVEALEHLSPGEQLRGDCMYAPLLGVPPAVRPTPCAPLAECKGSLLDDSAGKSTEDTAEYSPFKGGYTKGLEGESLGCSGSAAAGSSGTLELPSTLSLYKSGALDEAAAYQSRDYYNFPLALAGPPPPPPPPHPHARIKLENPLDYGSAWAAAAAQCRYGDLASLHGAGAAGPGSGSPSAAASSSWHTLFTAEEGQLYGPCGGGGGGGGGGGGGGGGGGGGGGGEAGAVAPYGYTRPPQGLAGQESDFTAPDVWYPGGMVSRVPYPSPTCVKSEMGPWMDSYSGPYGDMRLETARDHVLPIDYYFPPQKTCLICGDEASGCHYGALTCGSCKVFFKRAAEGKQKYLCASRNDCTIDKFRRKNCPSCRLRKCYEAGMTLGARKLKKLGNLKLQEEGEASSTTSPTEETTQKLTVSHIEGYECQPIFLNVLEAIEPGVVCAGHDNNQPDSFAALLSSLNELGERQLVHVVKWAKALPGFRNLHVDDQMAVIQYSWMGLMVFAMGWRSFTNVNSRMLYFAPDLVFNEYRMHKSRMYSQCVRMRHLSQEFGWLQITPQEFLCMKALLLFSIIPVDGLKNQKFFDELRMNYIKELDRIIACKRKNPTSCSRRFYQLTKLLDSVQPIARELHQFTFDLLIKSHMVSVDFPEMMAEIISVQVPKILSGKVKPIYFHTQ
Description: Androgen receptor transactivation assay, antiandrogenic activity: inhibition of transactivation in the presence of 1 nM DHT (CHO-AR-pMMTV-LUC cells; Table 4). In kind it is cell-based. As to conditions: antiandrogenic activity, in the presence of 1 nM DHT; read-out: ant EC50. The procedure: Compounds were tested for their Androgen Receptor activity in a transactivation assay and in a binding assay.
The (anti-)androgenic activity of test compounds (EC50 and intrinsic activity) was determined in an in vitro bioassay of Chinese hamster ovary (CHO) cells stably transfected with the human androgen receptor expression plasmid and a reporter plasmid in which the MMTV-promoter is linked to the luciferase reporter gene. The cell-line CHO-AR-pMMTV-LUC 1G12-AS-CA is described in Schoonen et al. (2000), Journal of Steroid Biochemistry and Molecular Biology 74(4):213-222. The antiandrogenic activity of a test compound was determined by the inhibition of the transactivation via the androgen receptor of the enzyme luciferase in the presence of 1 nM DHT (5 α-dihydrotestosterone, 17β-hydroxy-5α-androstan-3-one). Intrinsic activity of antiandrogenic activity was determined in the presence of the reference antiandrogen 2-Hydroxy-2-methyl-N-(4-nitro-3-trifluoromethyl-phenyl)-propionamide (Hydroxyflutamide), and set at 100%. For androgenic activity, maximal intrinsic activity in the presence of 100 nM DHT was set at 100%. Table 4 Androgen receptor activity
For `CC(C)NC(=O)c1ccc2c(Sc3ccccc3[N+](=O)[O-])cn(Cc3cc(F)cc(F)c3)c2c1` [Compound 46], the pEC50 was under 5.00.

Staying with this experiment, now noted: in the presence of 1 nM DHT; intrinsic activity relative to reference antiandrogen Hydroxyflutamide (set at 100%); read-out: ant efficacy.
For the compound `COc1ccc2c(Sc3ccccc3[N+](=O)[O-])cn(Cc3cc(F)ccc3F)c2c1` [Compound 1], the Emax is under 20%.
Regarding `COc1ccc2c(Sc3ccccc3[N+](=O)[O-])cn(Cc3cccc(C)c3F)c2c1` [Compound 2], the Emax was under 20%.
The same measure, in the same setting: the same measure for `COc1ccc2c(Sc3ccccc3[N+](=O)[O-])cn(Cc3ccccc3Cl)c2c1` [Compound 3]: under 20%; for `COc1ccc2c(Sc3ccccc3[N+](=O)[O-])cn(Cc3ccccc3C#N)c2c1` [Compound 4]: 20 to 50%; for `COc1ccc2c(Sc3ccccc3[N+](=O)[O-])cn(Cc3ccccc3F)c2c1` [Compound 5]: under 20%.
Still for that read-out and setting: the same measure for `COc1ccc2c(Sc3ccccc3[N+](=O)[O-])cn(Cc3ccccc3C)c2c1` [Compound 7]: under 20%; for `COc1ccc2c(Sc3ccccc3[N+](=O)[O-])cn(Cc3ccccn3)c2c1` [Compound 10, 6-Methoxy-3-(2-nitro-phenylsulfanyl)-1-pyridin-2 ylmethyl-1H-indole monohydrochloride]: under 20%.
In the case of `COc1ccc2c(Sc3ccccc3[N+](=O)[O-])cn(Cc3ccccc3C(F)(F)F)c2c1` [Compound 12], the Emax was under 20%.
Still for that read-out and setting: the same measure for `COc1ccc2c(Sc3ccccc3[N+](=O)[O-])cn(Cc3cc(C)on3)c2c1` [Compound 13]: under 20%.
The same measure, in the same setting: for `COc1ccc2c(Sc3ccccc3[N+](=O)[O-])cn(Cc3ccc(Cl)c(Cl)c3)c2c1` [Compound 14] the value was under 20%; for `COc1ccc2c(Sc3ccccc3[N+](=O)[O-])cn(Cc3cc(Cl)cc(Cl)c3)c2c1` [Compound 15], under 20%.
Still for that read-out and setting: the same measure for `CNC(=O)c1ccccc1Sc1cn(Cc2cc(F)cc(F)c2)c2cc(OC)ccc12` [Compound 17, 2-[1-(3,5-Difluoro-benzyl)-6-methoxy-1H-indol-3-ylsulfanyl]-N-methyl-benzamide]: 50 to 80%.
Take `COC(=O)c1ccccc1Sc1cn(Cc2cc(F)cc(F)c2)c2cc(OC)ccc12` [Compound 19, 2-[1-(3,5-Difluoro-benzyl)-6-methoxy-1H-indol-3-ylsulfanyl]-benzoic acid methyl ester]: the Emax is under 20%.
Same read-out and setting: the same measure for `COc1ccc2c(Sc3ccccc3C#N)cn(Cc3cc(F)cc(F)c3)c2c1` [Compound 20, 2-[1-(3,5-Difluoro-benzyl)-6-methoxy-1H-indol-3-ylsulfanyl]-benzonitrile]: under 20%; for `O=[N+]([O-])c1ccccc1Sc1cn(Cc2cc(F)cc(F)c2)c2cc(Br)ccc12` [Compound 22]: under 20%.
For `O=[N+]([O-])c1ccccc1Sc1cn(Cc2cc(F)cc(F)c2)c2cc(C(F)(F)F)ccc12` [Compound 23], the Emax is under 20%.
On the same count and under the same terms, the same measure for `O=[N+]([O-])c1ccccc1Sc1cn(Cc2cc(F)cc(F)c2)c2cc(CO)ccc12` [Compound 24]: under 20%; for `O=[N+]([O-])c1ccccc1Sc1cn(Cc2cc(F)cc(F)c2)c2cc(Cl)ccc12` [Compound 25]: under 20%; for `N#Cc1ccc2c(Sc3ccccc3[N+](=O)[O-])cn(Cc3cc(F)cc(F)c3)c2c1` [Compound 26, 1-(3,5-Difluoro-benzyl)-3-(2-nitro-phenylsulfanyl)-1H-indole-6-carbonitrile]: under 20%.
Still for that read-out and setting: for `O=C(c1ccc2c(Sc3ccccc3[N+](=O)[O-])cn(Cc3cc(F)cc(F)c3)c2c1)N1CCCC1` [Compound 27] the value was under 20%; for `O=C(c1ccc2c(Sc3ccccc3[N+](=O)[O-])cn(Cc3cc(F)cc(F)c3)c2c1)N1CCOCC1` [Compound 28], under 20%.
The same measure, in the same setting: for `CN1CCN(C(=O)c2ccc3c(Sc4ccccc4[N+](=O)[O-])cn(Cc4cc(F)cc(F)c4)c3c2)CC1` [Compound 29] the value was under 20%; for `O=C(O)c1ccc2c(Sc3ccccc3[N+](=O)[O-])cn(Cc3cc(F)cc(F)c3)c2c1` [Compound 30, 1-(3,5-Difluoro-benzyl)-3-(2-nitro-phenylsulfanyl)-1H-indole-6-carboxylic acid], under 20%.
Turning to `COC(=O)c1ccc2c(Sc3ccccc3[N+](=O)[O-])cn(Cc3cc(F)cc(F)c3)c2c1` [Compound 31, 1-(3,5-Difluoro-benzyl)-3-(2-nitro-phenylsulfanyl)-1H-indole-6-carboxylic acid methyl ester], the Emax is under 20%.
Same read-out and setting: for `NC(=O)c1ccc2c(Sc3ccccc3[N+](=O)[O-])cn(Cc3cc(F)cc(F)c3)c2c1` [Compound 33, 1-(3,5-Difluoro-benzyl)-3-(2-nitro-phenylsulfanyl)-1H-indole-6-carboxylic acid amide] the value was under 20%.
Same read-out and setting: for `O=C(NCc1ccco1)c1ccc2c(Sc3ccccc3[N+](=O)[O-])cn(Cc3cc(F)cc(F)c3)c2c1` [Compound 34] the value was under 20%.
Still for that read-out and setting: the same measure for `O=C(NCc1cccnc1)c1ccc2c(Sc3ccccc3[N+](=O)[O-])cn(Cc3cc(F)cc(F)c3)c2c1` [Compound 35]: under 20%; for `CN(C)CCNC(=O)c1ccc2c(Sc3ccccc3[N+](=O)[O-])cn(Cc3cc(F)cc(F)c3)c2c1` [Compound 36]: under 20%; for `O=C(NCCO)c1ccc2c(Sc3ccccc3[N+](=O)[O-])cn(Cc3cc(F)cc(F)c3)c2c1` [Compound 37]: under 20%.
As for `COCCNC(=O)c1ccc2c(Sc3ccccc3[N+](=O)[O-])cn(Cc3cc(F)cc(F)c3)c2c1` [Compound 38], the Emax was under 20%.
The same measure, in the same setting: the same measure for `COC(=O)CNC(=O)c1ccc2c(Sc3ccccc3[N+](=O)[O-])cn(Cc3cc(F)cc(F)c3)c2c1` [Compound 39]: under 20%; for `CN(C)C(=O)CNC(=O)c1ccc2c(Sc3ccccc3[N+](=O)[O-])cn(Cc3cc(F)cc(F)c3)c2c1` [Compound 40]: under 20%.
For `O=C(NCC1CC1)c1ccc2c(Sc3ccccc3[N+](=O)[O-])cn(Cc3cc(F)cc(F)c3)c2c1` [Compound 41], the Emax is under 20%.
The same measure, in the same setting: for `CC(C)CNC(=O)c1ccc2c(Sc3ccccc3[N+](=O)[O-])cn(Cc3cc(F)cc(F)c3)c2c1` [Compound 42] the value was under 20%; for `O=C(NC1CC1)c1ccc2c(Sc3ccccc3[N+](=O)[O-])cn(Cc3cc(F)cc(F)c3)c2c1` [Compound 44], under 20%.
The same measure, in the same setting: the same measure for `CCNC(=O)c1ccc2c(Sc3ccccc3[N+](=O)[O-])cn(Cc3cc(F)cc(F)c3)c2c1` [Compound 45]: under 20%.

The same experiment, now with this note: read-out: ant efficacy, in the presence of 1 nM DHT; intrinsic activity relative to reference antiandrogen Hydroxyflutamide (set at 100%).
Take `COc1ccc2c(Sc3ccccc3[N+](=O)[O-])cn(Cc3cccc([N+](=O)[O-])c3C)c2c1` [Compound 6]: the Emax is under 20%.
Consider `COc1ccc2c(Sc3ccccc3[N+](=O)[O-])cn(Cc3ccccc3[N+](=O)[O-])c2c1` [Compound 8], for which the Emax is under 20%.
On the same count and under the same terms, the same measure for `COc1ccc2c(Sc3ccccc3[N+](=O)[O-])cn(Cc3ccccn3)c2c1` [Compound 9, 6-Methoxy-3-(2-nitro-phenylsulfanyl)-1-pyridin-2-ylmethyl-1H-indole]: 20 to 50%; for `COc1ccc2c(Sc3ccccc3[N+](=O)[O-])cn(CC3CCCCO3)c2c1` (stereo not drawn) [Compound 11]: under 20%; for `COc1ccc2c(Sc3ccccc3CO)cn(Cc3cc(F)cc(F)c3)c2c1` [Compound 16, {2-[1-(3,5-Difluoro-benzyl)-6-methoxy-1H-indol-3-ylsulfanyl]-phenyl}-methanol]: 20 to 50%.
Same read-out and setting: for `CCN(CC)C(=O)c1ccc2c(Sc3ccccc3[N+](=O)[O-])cn(Cc3cc(F)cc(F)c3)c2c1` [Compound 32] the value was 20 to 50%.
On the same count and under the same terms, the same measure for `O=C(NCc1ccccc1)c1ccc2c(Sc3ccccc3[N+](=O)[O-])cn(Cc3cc(F)cc(F)c3)c2c1` [Compound 43]: 20 to 50%; for `CC(C)NC(=O)c1ccc2c(Sc3ccccc3[N+](=O)[O-])cn(Cc3cc(F)cc(F)c3)c2c1` [Compound 46]: 20 to 50%.
